From patent US12018009B2, “ALDH-2 inhibitor compounds and methods of use” (Amygdala Neurosciences, Inc., priority 2022, dated 2024)

Assays:
MAO-B = target: T1, MAO-B (Homo sapiens, UniProt P27338); test: MAO-B inhibition assay (luminogenic substrate); assay type: biochemical; conditions: 20 min pre-incubation; 10 μM = highest concentration tested; read-out: Enzymatic Assays IC50 MAO-B
T1 sequence (P27338 1-520): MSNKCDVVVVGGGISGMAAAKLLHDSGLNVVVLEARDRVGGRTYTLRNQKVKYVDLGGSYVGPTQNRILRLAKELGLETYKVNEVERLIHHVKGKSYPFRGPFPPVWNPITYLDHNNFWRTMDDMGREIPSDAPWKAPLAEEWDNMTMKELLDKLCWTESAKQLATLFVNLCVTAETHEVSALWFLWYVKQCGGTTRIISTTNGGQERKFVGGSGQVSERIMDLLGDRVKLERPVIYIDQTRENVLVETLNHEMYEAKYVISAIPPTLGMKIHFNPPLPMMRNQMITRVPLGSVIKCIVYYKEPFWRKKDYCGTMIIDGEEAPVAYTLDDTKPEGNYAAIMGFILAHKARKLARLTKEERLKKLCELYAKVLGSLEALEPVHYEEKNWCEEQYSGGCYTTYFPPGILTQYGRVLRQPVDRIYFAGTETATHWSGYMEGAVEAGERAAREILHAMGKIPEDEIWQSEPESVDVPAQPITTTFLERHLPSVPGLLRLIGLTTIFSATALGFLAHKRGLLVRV
Protocol: (§1) D. MAO-A and MAO-B inhibition assays: MAO assays included luminogenic MAO substrate, reaction buffers, Luciferin Detection, and a reconstitution buffer with esterase. The MAO reaction mixture used in the assay included microsome contained MAO-A (2 μg) or MAO-B (10 μg), 160 μM substrate for MAO-A or 16 μM substrate for MAO-B, MAO-A buffer (100 mM Hepes buffer, pH 7.5, 5% glycerol) or MAO-B buffer (100 mM Hepes, pH 7.5, 5% glycerol, 10% dimethyl sulfoxide) in a final volume of 30 μL. After 20 minutes of pre-incubation of the MAO-A or MAO-B enzyme with the test ALDH-2 inhibitor compound, the reaction was initiated by adding enzyme substrate and the […] reaction was allowed to proceed for 60 minutes. Reconstituted Luciferin Detection Reagent (30 μL) was then added is added to simultaneously stop the MAO reaction and convert the methyl ester derivative to luciferin and produce light. The amount of light produced is directly proportional to the activity of MAO. The mixtures were further incubated for 20 minutes and activity of the enzyme was determined using Perkin-Elmer Envision Reader.

MAO-A = target: T2, MAO-A (Homo sapiens, UniProt P21397); test: MAO-A inhibition assay (luminogenic substrate); assay type: biochemical; conditions: 20 min pre-incubation; 10 μM = highest concentration tested; read-out: Enzymatic Assays IC50 MAO-A
T2 sequence (P21397 1-527): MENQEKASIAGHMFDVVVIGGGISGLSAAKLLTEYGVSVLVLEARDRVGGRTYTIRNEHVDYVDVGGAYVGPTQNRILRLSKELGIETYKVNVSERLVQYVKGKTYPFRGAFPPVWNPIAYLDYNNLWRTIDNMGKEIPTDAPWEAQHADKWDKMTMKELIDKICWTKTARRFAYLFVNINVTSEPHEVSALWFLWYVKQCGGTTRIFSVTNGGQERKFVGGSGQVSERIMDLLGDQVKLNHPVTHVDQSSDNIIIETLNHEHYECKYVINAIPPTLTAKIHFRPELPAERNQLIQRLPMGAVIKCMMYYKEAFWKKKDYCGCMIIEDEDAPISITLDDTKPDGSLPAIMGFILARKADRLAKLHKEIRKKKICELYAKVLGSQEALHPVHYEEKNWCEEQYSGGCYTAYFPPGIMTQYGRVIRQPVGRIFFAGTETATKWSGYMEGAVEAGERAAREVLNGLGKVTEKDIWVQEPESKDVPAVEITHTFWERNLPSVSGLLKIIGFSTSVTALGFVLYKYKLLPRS
Protocol: as §1

recombinant human ALDH-1 = target: T3, recombinant human ALDH-1 (Homo sapiens, UniProt P00352); test: ALDH-1 inhibition assay; assay type: biochemical; conditions: 60 min pre-incubation; 10 μM = highest concentration tested; read-out: Enzymatic Assays IC50 ALDH-1
T3 sequence (P00352 1-501): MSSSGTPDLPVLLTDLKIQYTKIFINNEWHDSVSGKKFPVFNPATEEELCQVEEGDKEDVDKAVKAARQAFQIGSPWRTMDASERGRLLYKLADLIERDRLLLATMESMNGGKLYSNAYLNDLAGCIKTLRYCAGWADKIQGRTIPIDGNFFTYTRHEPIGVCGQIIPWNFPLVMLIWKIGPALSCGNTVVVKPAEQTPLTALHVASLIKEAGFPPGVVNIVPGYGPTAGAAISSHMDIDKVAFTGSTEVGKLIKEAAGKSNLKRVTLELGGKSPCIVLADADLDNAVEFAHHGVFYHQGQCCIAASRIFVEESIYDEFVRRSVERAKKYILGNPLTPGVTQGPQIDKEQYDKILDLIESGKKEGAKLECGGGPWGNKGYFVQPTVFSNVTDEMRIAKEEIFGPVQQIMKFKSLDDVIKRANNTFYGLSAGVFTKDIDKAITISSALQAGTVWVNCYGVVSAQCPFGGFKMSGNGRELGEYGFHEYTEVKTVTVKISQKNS
Protocol: B. ALDH-1 inhibition assay: The ALDH-1 reaction mixture used in the assay contained 100 μM formaldehyde, 2.5 mM NAD+, 20 mM NaCl, 10 mM MgCl2, 1 mM dithiothreitol (DTT; reducing agent), and 50 nM recombinant human ALDH-1 in 50 mM Hepes buffer, pH 7.5 in a final volume of 10 μL using 384-well Corning 3820 plates. After 60 min of pre-incubation of the test ALDH-2 inhibitor compound with ALDH-1, the reaction was started by adding NAD+ and formaldehyde and the assay reaction mixture was allowed to proceed for 60 minutes. Activity of the ALDH-1 enzyme was determined by monitoring NADH formation using Perkin-Elmer Envision Reader with excitation and emission wavelengths set at 340 and 460 nm, respectively.

recombinant human ALDH-2 = target: T4, recombinant human ALDH-2 (Homo sapiens, UniProt P05091); test: ALDH-2 inhibition assay; assay type: biochemical; conditions: 60 min pre-incubation; 10 μM = highest concentration tested; read-out: Enzymatic Assays IC50 ALDH2
T4 sequence (P05091 18-517): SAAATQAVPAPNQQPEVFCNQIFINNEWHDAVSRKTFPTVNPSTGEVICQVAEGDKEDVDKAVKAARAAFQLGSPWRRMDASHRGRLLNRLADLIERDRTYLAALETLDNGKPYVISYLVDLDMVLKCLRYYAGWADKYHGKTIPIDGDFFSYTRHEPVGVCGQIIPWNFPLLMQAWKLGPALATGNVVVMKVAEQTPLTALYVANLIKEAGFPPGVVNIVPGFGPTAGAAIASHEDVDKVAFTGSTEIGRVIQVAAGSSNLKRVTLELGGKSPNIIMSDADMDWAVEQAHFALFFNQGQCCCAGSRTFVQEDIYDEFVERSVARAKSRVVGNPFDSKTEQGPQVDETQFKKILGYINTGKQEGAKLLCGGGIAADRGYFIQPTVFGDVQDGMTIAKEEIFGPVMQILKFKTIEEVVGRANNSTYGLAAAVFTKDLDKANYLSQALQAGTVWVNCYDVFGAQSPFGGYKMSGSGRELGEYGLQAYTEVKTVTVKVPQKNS
Protocol: A. ALDH-2 inhibition assay: The ALDH-2 reaction mixture used in the assay contained 125 μM formaldehyde, 75 μM NAD+, 20 mM NaCl, 10 mM MgCl2, and 20 nM recombinant human ALDH-2 in 50 mM Hepes buffer, pH 7.5 in a final volume of 10 μL using 384-well Corning 3820 plates. After 60 min of pre-incubation of the test ALDH-2 inhibitor compound with ALDH-2, the reaction was started by adding NAD+ and formaldehyde and the assay reaction mixture was allowed to proceed for 60 minutes. Activity of the ALDH-2 enzyme was determined by monitoring NADH formation using Perkin-Elmer Envision Reader with excitation and emission wavelengths set at 340 and 460 nm, respectively.

[1] = O'Malley et al. 2021; cited from earlier work

Work on Cc1cccc(Cl)c1C(=O)NCc1cnc(N2CCNC(=O)C2)nc1 [(1a), 2-Chloro-6-methyl-N-((2-(3-oxopiperazin-1-yl)pyrimidin-5-yl)methyl)benzamide] yielded an IC50 (MAO-B) of over 10 µM, an IC50 (MAO-A) of over 10 µM and an IC50 (recombinant human ALDH-1) of over 10 µM. It also gave an IC50 (recombinant human ALDH-2) of 0.089 µM.

For O=C(NCc1ccc(-c2cc[nH]c(=O)c2)cc1)c1c(Cl)cccc1Cl [2,6-dichloro-N-[4-(2-oxo-1,2-dihydro-pyridin-4-yl)-benzyl]-benzamide], the hepatotoxicity in humans [1] is listed as “high levels of hepatotoxicity”.

Work on O=C1CN(c2ncc(CNC(=O)c3ccccc3Cl)cn2)CCN1 [(1b), 2-Chloro-N-((2-(3-oxopiperazin-1-yl)pyrimidin-5-yl)methyl)benzamide] yielded an IC50 (MAO-B) of over 10 µM, an IC50 (MAO-A) of over 10 µM and an IC50 (recombinant human ALDH-1) of over 10 µM. For the same compound, the IC50 (recombinant human ALDH-2) was 0.264 µM.

Compound Cc1nccc(Cl)c1C(=O)NCc1cnc(N2CCNC(=O)C2)nc1 [(1c), 4-Chloro-2-methyl-N-((2-(3-oxopiperazin-1-yl)pyrimidin-5-yl)methyl)nicotinamide] has an IC50 (MAO-B) of over 10 µM, an IC50 (MAO-A) of over 10 µM and an IC50 (recombinant human ALDH-1) of over 10 µM. The IC50 (recombinant human ALDH-2) was 0.088 µM.
